Test results as given in patent US20130150399A1, “INHIBITORS OF THE UNFOLDED PROTEIN RESPONSE AND METHODS FOR THEIR USE” (The Board of Trustees of the Leland Stanford Junior …, priority 2006, published 2013).

What was measured:
XBP-luciferase reporter = XBP-luciferase reporter assay under Tm or hypoxia, HT1080 cells; type: cell-based, human
Experimental: HT1080 cells stably expressing the XBP-luciferase construct were grown in 60 mm dishes to 60-70% confluency. Following hypoxia treatment, cells were washed twice with PBS, lysed in 400 μl 1× reporter lysis buffer (RLB) (Promega, Madison Wis.) for 30 min at 24° C. Lysates (100 μl) were mixed with an equal volume of luciferase substrate (Promega), and assayed using a luminometer. For 5×-UPRE-luciferase reporter assays, cells were co-transfected with the appropriate reporter plasmid and a control plasmid (pSV40-beta-gal) using Lipofectamine 2000 (Invitrogen, San Diego, Calif.). Twenty-four hours after transfection, fresh media was added, and cells were treated with Tm or shifted to hypoxia. After treatment, cells were lysed in 1×RLB and analyzed for luciferase activity as described above. Beta-galactosidase activity was determined using the beta-galactosidase enzyme assay system (Promega).
A. XBP-luciferase reporter construct. Firefly luciferase was inserted downstream of the IRE1α splice site in human XBP-1 to enable the conditional translation of luciferase under ER stress in an IRE1α-dependent manner. B. Selective inhibition of the XBP-luciferase reporter by irestatin 9389. HT1080 human fibrosarcoma cells stably expressing the XBP-luciferase reporter or CMV-luciferase were cultured in the presence of Tm (4 μg/ml) and Tg (0.4 μM) and irestatin 9389 at the indicated concentrations. After 24 hours, luciferase activity was analyzed in an automated plate reader. For each cell line, values are expressed as the percent inhibition of the median for Tm/Tg-treated wells, corrected for background. C. Structure of irestatin 9389. D. XBP-luciferase reporter assay. HT1080 cells stably expressing the XBP-luciferase reporter were exposed to Tm (4 μg/ml) for 24 hours or hypoxia (0.1% oxygen) for 24 or 48 hours, in the presence of DMSO or irestatin 9389 (1 μM) as indicated. Values are expressed as the fold increases over uninduced levels. E. 5×-UPRE reporter assay. HT1080 cells were co-transfected with 5×-UPRE luciferase and SV40-beta-gal reporter plasmids, followed by exposure to Tm or hypoxia as in D. For each condition, luciferase activity is normalized to beta-galactosidase expression levels as an internal control for transfection efficiency. F. Western immunoblot analysis of XBP-1s. HT1080 cells were left untreated (lane 2) or exposed to Tm (4 μg/ml) for 20 hours in the presence of DMSO vehicle (lane 1) or the indicated irestatins (2 μM; lanes 3-6). […] Cells were harvested, lysed, and analyzed by immunoblotting with antisera specific for HIF-1α (top), XBP-1s (middle) or actin (bottom). […] Total RNA was analyzed by Northern blotting using radiolabeled probes specific for P58^IPK or DER-1. […]

RNAse A = biological target: T1, RNAse A (Bos taurus, UniProt P61823); test: RNAse A activity assay; type: biochemical, bovine; conditions: >100-fold molar excess of irestatin 9389
T1 construct: purchased Sigma
T1 sequence (P61823 27-150): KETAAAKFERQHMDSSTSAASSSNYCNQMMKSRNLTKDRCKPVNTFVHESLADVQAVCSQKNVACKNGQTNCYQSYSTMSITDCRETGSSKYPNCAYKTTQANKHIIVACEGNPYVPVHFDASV

Q: What does the source list for Cc1csc(NC(=O)CSc2nc3c(c(C(F)(F)F)c2C#N)CCC3)n1 [Compound 9389]?
A: hypoxia-induced increase of XBP-luciferase activity (XBP-luciferase reporter; 1 μM, 48 hours of hypoxia (control 95-fold)): robustly inhibited this response; activation of the XBP-luciferase reporter under hypoxia (XBP-luciferase reporter; 1 μM, hypoxia (<0.1% oxygen) for 24 or 48 hours): diminished activation; inhibition at 1 µM (XBP-luciferase reporter; Homo sapiens, HT-1080, irestatin 9389 1 μM, Tm 24 hours, read-out: inhibition of Tm-mediated activation of the XBP-luciferase reporter): > 90%; degradation of the XBP-1 3′ intronic loop by RNAse A (RNAse A): failed to inhibit degradation
